System: human microvascular endothelial cells (HMEC)
Assay: Internalization into human microvascular endothelial cells (HMEC), temperature effect and controls
Type: cell-based
Conditions: 10 uM, 60 min, 37° C.
Procedure: The human microvascular endothelial cells (HMEC) cells were incubated with conjugates (10 uM) for 2.5 min at 4° C. or at 37° C.
The HMEC cells were incubated with conjugates (1 uM) for 30 min at 4° C. or at 37° C.
(b) The HMEC cells were incubated with Boc-protected guanidinylated FD-2 (10 uM) for 60 min at 37° C.
Internalization of FD-1 and FD-2 in mammalian cells was assessed using two different cell lines and a previously described method [Futaki, S.; Nakase, I.; Suzuki, T.; Youjun, Y.; Sugiura, Y. Biochemistry 2002, 41, 7925.] with NIH-3T3 fibroblasts and HMEC (human microvascular endothelial cells) and a Zeiss LSM 510 confocal microscope. […] [Futaki, S.; Nakase, I.; Suzuki, T.; Youjun, Y.; Sugiura, Y. Biochemistry 2002, 41, 7925.; Vivès, E.; Brodin, P.; Lebleu, B. J. Biol. Chem. 1997, 272, 16010.] Furthermore, the extent of internalization increased in an incubation time-dependent manner, and it was observed that after just 10 min, the fluorescence intensity of cells treated with FD-2 was near saturation. […] Without wishing to be bound by theory, it is believed that the length of the spacer at the terminal generation of the dendrimer can not only control the uptake rate, [Wender, P. A.; Kreider, E.; Pelkey, E. T.; Steinman, L.; Rothbard, J. B.; VanDeusen, C. L. Org. Lett. 2005, 7, 4815.] but also regulate the subcellular localization of the molecule and its putative cargo. […]

fluorescein isothiocyanate [free FITC]
fluorescence of treated cells (control experiments): no
